From ChEMBL document CHEMBL1130869, “Peptide-based inhibitors of the hepatitis C virus serine protease” (Bioorg Med Chem Lett, 1998)
Starred links: 1 amine or outer side, 2 acyl side, 3 side chain; linkers in the order of their positions; H or OH if unused. Non-standard residues stand in square brackets, D forms with d. Residues, ends and D or L forms follow the SMILES beside them. Pen = CC(C)(S)[C@H](N)C(=O)O; Suc = O=C(CCC(=O)[*:2])[*:1]; Tle = CC(C)(C)[C@H](N)C(=O)O; Dap = NC[C@H](N)C(=O)O

Target: Hepatitis C virus serine protease, NS3/NS4A (Hepatitis C virus, UniProt A3EZI9+D2K2A8)
Experiment: The apparent Ki value against NS3-4Apep protease
Type: protein-complex assay, Hepacivirus hominis
Conditions: read-out: Ki app

Sequence of Hepatitis C virus serine protease, NS3/NS4A (D2K2A8 whole entry): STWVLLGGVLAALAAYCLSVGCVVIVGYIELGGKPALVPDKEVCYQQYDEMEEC
Sequence of Hepatitis C virus serine protease, NS3/NS4A (A3EZI9 whole entry): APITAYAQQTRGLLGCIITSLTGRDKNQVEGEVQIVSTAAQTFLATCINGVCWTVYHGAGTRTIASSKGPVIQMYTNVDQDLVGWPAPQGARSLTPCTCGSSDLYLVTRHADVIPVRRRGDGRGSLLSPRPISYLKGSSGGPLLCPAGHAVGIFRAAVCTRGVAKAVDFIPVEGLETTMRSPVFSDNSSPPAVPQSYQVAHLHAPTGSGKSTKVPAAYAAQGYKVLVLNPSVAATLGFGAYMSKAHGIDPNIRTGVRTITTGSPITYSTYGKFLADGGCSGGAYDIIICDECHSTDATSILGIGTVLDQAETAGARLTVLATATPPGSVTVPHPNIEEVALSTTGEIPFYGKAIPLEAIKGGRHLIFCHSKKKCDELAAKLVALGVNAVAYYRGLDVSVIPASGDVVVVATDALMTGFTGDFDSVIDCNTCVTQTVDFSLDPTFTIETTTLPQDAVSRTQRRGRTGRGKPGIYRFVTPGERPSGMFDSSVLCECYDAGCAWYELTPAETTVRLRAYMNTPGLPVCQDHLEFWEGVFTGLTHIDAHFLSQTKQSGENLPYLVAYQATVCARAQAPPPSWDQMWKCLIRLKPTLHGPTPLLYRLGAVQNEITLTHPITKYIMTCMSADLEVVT

| Compound | Ki [µM] |
| --- | --- |
| H-DDIVPC-OH | 14 |
| CC[C@H](C)[C@H](NC(=O)C(CC(=O)O)NC(=O)[C@H](CC(=O)O)NC(C)=O)C(=O)N[C@H](C(=O)N1CCC[C@H]1C(=O)N[C@@H](CS)C(=O)O)C(C)C (single isomer, unassigned) | 0.6 |

Target: NS3 (Hepatitis C virus, UniProt A3EZJ3)
Experiment: Inhibitory activity against NS3-4A pep protease
Set-up: species or system Hepacivirus hominis
Conditions: not given

Sequence of NS3 (A3EZJ3 whole entry): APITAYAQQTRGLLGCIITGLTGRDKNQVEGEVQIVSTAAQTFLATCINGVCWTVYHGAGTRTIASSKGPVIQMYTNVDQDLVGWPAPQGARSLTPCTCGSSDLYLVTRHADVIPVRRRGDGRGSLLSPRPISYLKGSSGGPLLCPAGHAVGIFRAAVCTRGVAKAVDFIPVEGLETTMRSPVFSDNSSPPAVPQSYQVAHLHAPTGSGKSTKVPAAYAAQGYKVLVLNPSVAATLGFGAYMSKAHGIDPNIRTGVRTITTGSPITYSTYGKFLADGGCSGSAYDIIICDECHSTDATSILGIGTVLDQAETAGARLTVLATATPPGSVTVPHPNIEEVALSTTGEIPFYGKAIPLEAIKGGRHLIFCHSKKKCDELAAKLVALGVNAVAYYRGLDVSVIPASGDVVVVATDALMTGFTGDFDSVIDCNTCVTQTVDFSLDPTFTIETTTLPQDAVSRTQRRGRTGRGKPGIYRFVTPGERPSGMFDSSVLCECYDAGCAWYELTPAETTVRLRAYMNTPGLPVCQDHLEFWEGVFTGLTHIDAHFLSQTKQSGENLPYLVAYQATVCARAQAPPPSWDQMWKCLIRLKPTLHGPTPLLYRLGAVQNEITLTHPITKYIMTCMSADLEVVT

| Compound | IC50 [µM] |
| --- | --- |
| Ac-DIVPC-OH | 130 |
| H-GEAGDDIVPC-OH | 52 |
| Ac-DDAVPC-OH | 580 |
| CC[C@@H](C)[C@@H](NC(=O)[C@H](CC(=O)O)NC(=O)[C@H](CC(=O)O)NC(C)=O)C(=O)N[C@H](C(=O)N1CCC[C@H]1C(=O)N[C@@H](CS)C(=O)O)C(C)C | 800 |
| CC[C@H](C)[C@H](NC(=O)[C@H](CC(=O)O)NC(=O)[C@H](CC(=O)O)NC(C)=O)C(=O)NC(C(=O)N1CCC[C@H]1C(=O)N[C@@H](CS)C(=O)O)C(C)C (single isomer, unassigned) | 830 |
| CC[C@H](C)[C@H](NC(=O)[C@H](CC(=O)O)NC(=O)[C@H](CC(=O)O)NC(C)=O)C(=O)N[C@H](C(=O)N1CCC[C@H]1C(=O)N[C@@H](CSC)C(=O)O)C(C)C (Ac-DDIVPC(Me)-OH) | 160 |
| CC[C@H](C)[C@H](NC(=O)CCC(=O)O)C(=O)N[C@H](C(=O)N1CCC[C@H]1C(=O)N[C@@H](CS)C(=O)O)C(C)C (Suc-IVPC-OH) | 830 |
| CC[C@H](C)[C@H](NC(=O)[C@H](CC(=O)O)NC(=O)[C@H](CC(=O)O)NC(C)=O)C(=O)N[C@H](C(=O)N1CCC[C@H]1C(=O)NC(CS)C(=O)O)C(C)C (single isomer, unassigned) | 330 |
| CC[C@H](C)[C@H](NC(=O)[C@H](CC(=O)O)NC(=O)[C@H](CC(=O)O)NC(C)=O)C(=O)N[C@H](C(=O)N1CCC[C@H]1C(=O)N[C@@H](CN)C(=O)O)C(C)C (Ac-DDIVP[Dap]-OH) | > 1000 |
| CC[C@H](C)[C@H](NC(=O)[C@@H](NC(=O)[C@H](CC(=O)O)NC(C)=O)C(C)(C)C)C(=O)N[C@H](C(=O)N1CCC[C@H]1C(=O)N[C@@H](CS)C(=O)O)C(C)C (Ac-D[Tle]IVPC-OH) | 20 |
| H-DDIVPC-OH | 71 |
| CC[C@H](C)[C@H](NC(=O)[C@H](CC(=O)O)NC(=O)[C@H](CC(=O)O)NC(C)=O)C(=O)N[C@H](C(=O)N1CCC[C@H]1C(=O)N[C@@H](CS)C(=O)O)C(C)C [listing 1 of 2 here] | > 1000 |
| CC[C@H](C)[C@H](NC(=O)C(NC(=O)[C@H](CC(=O)O)NC(C)=O)C(C)C)C(=O)N[C@H](C(=O)N1CCC[C@H]1C(=O)N[C@@H](CS)C(=O)O)C(C)C (single isomer, unassigned) | 7.5 |
| CC[C@H](C)[C@H](NC(=O)[C@H](CC(=O)O)NC(=O)[C@H](CC(=O)O)NC(C)=O)C(=O)N[C@H](C(=O)N1CCC[C@H]1C(=O)N[C@@H](CS)C(=O)O)C(C)C [listing 2 of 2 here] | 28 |
| Ac-DDIVPA-OH | 710 |
| CC[C@H](C)[C@H](NC(=O)[C@H](CC(=O)O)NC(=O)CCC(=O)O)C(=O)N[C@H](C(=O)N1CCC[C@H]1C(=O)N[C@@H](CS)C(=O)O)C(C)C | 33 |
| CC[C@H](C)[C@H](NC(=O)C(CC(=O)O)NC(=O)[C@H](C)NC(C)=O)C(=O)N[C@H](C(=O)N1CCC[C@H]1C(=O)N[C@@H](CS)C(=O)O)C(C)C (single isomer, unassigned) | 200 |
| Ac-DDIVAC-OH | 93 |
| Ac-DDIVPS-OH | > 1000 |
| Ac-DDIAPC-OH | 890 |
| CC[C@H](C)[C@H](NC(=O)[C@@H](NC(=O)[C@H](CC(=O)O)NC(C)=O)C(C)C)C(=O)N[C@H](C(=O)N1CCC[C@H]1C(=O)N[C@@H](CS)C(=O)O)C(C)C | 52 |
| CC[C@H](C)[C@H](NC(=O)[C@H](CC(=O)O)NC(=O)[C@H](CC(=O)O)NC(C)=O)C(=O)N[C@H](C(=O)N1CCC[C@H]1C(=O)N[C@H](C(=O)O)C(C)(C)S)C(C)C (Ac-DDIVP[Pen]-OH) | 630 |
| CC[C@H](C)[C@H](NC(=O)C(CC(=O)O)NC(=O)CCC(=O)O)C(=O)N[C@H](C(=O)N1CCC[C@H]1C(=O)N[C@@H](CS)C(=O)O)C(C)C (single isomer, unassigned) | 76 |
| CC[C@H](C)[C@H](NC(=O)[C@H](CC(=O)O)NC(=O)[C@@H](CC(=O)O)NC(C)=O)C(=O)N[C@H](C(=O)N1CCC[C@H]1C(=O)N[C@@H](CS)C(=O)O)C(C)C | 40 |
| CC[C@H](C)[C@H](NC(=O)[C@H](CC(=O)O)NC(=O)[C@H](C)NC(C)=O)C(=O)N[C@H](C(=O)N1CCC[C@H]1C(=O)N[C@@H](CS)C(=O)O)C(C)C | 200 |
| Ac-DDIVPM-OH | 500 |
| CC[C@H](C)[C@H](NC(=O)C(CC(=O)O)NC(=O)[C@H](CC(=O)O)NC(C)=O)C(=O)N[C@H](C(=O)N1CCC[C@H]1C(=O)N[C@@H](CS)C(=O)O)C(C)C (single isomer, unassigned) | 4 |
| Ac-DAIVPC-OH | 140 |
